ChEMBL document CHEMBL5465560, “Selectivity Literature for EUbOPEN Chemogenomic Library” (2024)

Key:
[1] = target: T1, Dual specificity tyrosine-phosphorylation-regulated kinase 2 (Homo sapiens) (UniProt Q92630); assay: Selectivity interaction (KinomeScan (DiscoverX)) EUB0000595a DYRK2; conditions: at 10 µM
T1 sequence (whole entry): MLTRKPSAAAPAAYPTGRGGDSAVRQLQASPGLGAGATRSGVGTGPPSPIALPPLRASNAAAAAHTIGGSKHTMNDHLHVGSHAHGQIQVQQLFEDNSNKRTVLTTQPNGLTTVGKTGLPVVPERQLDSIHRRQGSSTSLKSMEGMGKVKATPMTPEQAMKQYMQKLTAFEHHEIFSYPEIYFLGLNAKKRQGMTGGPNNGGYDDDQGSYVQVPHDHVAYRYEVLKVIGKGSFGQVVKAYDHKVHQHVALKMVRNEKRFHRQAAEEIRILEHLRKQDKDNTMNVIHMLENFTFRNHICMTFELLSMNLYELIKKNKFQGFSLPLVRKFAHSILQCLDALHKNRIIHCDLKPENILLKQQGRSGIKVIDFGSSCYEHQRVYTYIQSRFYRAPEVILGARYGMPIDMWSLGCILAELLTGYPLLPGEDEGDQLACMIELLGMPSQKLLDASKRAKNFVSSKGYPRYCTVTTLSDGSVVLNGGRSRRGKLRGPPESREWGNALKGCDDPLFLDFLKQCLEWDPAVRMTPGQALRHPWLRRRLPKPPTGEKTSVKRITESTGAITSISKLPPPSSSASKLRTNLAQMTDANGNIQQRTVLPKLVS

[2] = target: BDNF/NT-3 growth factors receptor (Homo sapiens) (UniProt Q16620); assay: Selectivity interaction (KinomeScan (DiscoverX)) EUB0000595a NTRK2; conditions: at 10 µM
Sequence of BDNF/NT-3 growth factors receptor (Homo sapiens) (Q16620 32-822 limits assumed): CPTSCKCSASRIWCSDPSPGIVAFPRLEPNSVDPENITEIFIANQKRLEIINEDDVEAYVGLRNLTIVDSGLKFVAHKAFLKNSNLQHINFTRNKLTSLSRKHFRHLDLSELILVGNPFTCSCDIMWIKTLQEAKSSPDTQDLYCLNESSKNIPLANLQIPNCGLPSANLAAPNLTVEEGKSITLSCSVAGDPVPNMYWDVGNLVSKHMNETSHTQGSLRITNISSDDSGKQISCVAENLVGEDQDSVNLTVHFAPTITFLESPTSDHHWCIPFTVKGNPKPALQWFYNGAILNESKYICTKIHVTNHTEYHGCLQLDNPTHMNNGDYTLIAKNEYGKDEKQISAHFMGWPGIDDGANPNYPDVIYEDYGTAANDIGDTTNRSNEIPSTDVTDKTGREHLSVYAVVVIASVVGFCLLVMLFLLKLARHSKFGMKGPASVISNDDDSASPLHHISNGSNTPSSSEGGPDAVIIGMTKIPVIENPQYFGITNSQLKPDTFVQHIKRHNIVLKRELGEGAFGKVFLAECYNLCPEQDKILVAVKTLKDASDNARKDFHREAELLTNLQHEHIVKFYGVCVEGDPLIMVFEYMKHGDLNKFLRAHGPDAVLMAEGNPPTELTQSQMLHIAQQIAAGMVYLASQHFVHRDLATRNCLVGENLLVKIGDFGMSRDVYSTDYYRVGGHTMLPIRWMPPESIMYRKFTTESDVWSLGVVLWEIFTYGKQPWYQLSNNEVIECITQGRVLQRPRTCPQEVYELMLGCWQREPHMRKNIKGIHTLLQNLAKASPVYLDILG

[3] = target: cAMP-dependent protein kinase catalytic subunit alpha (Homo sapiens, UniProt P17612); assay: Selectivity interaction (KinomeScan (DiscoverX)) EUB0000045b PRKACA
[4] = target: Myosin-IIIa (Homo sapiens) (UniProt Q8NEV4); assay: Selectivity interaction (KinomeScan (DiscoverX)) EUB0001079a MYO3A; conditions: at 1 µM
[5] = target: Mitotic checkpoint serine/threonine-protein kinase BUB1 (Homo sapiens, UniProt O43683); assay: Selectivity interaction (KinomeScan (DiscoverX)) EUB0001049a BUB1; conditions: at 1 µM
Sequence of Mitotic checkpoint serine/threonine-protein kinase BUB1 (O43683 whole entry, looked up): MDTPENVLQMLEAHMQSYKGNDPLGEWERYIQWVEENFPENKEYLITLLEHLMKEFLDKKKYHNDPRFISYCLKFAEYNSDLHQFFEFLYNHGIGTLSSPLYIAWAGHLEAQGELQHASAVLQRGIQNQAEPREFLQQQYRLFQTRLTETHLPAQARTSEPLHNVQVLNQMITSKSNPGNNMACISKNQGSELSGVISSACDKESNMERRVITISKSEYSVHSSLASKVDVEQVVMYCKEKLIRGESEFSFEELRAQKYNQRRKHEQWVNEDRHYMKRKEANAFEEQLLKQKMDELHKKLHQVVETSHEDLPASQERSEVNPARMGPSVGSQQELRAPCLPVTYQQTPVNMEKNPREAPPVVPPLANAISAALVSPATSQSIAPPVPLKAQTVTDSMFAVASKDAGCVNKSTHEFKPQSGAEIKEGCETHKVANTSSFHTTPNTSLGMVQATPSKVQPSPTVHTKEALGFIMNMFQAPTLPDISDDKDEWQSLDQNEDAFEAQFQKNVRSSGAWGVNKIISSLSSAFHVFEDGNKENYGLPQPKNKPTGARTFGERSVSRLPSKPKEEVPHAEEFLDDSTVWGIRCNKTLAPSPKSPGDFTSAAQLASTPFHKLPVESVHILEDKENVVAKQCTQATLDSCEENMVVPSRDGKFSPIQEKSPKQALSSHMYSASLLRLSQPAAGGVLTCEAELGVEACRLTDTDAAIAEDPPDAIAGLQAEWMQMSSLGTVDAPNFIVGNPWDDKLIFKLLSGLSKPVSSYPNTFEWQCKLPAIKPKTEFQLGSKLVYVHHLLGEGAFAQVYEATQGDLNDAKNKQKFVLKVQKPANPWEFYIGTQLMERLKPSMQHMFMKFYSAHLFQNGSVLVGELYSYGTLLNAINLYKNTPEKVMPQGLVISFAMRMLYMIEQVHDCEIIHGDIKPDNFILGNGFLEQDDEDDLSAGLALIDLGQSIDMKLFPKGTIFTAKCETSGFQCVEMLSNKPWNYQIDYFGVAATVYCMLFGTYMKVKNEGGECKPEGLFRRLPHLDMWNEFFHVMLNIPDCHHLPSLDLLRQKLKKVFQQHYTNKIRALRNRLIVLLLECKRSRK

[6] = target: T2, Homeodomain-interacting protein kinase 4 (Homo sapiens) (UniProt Q8NE63); assay: Selectivity interaction (KinomeScan (DiscoverX)) EUB0001049a HIPK4; conditions: at 1 µM
T2 sequence (whole entry): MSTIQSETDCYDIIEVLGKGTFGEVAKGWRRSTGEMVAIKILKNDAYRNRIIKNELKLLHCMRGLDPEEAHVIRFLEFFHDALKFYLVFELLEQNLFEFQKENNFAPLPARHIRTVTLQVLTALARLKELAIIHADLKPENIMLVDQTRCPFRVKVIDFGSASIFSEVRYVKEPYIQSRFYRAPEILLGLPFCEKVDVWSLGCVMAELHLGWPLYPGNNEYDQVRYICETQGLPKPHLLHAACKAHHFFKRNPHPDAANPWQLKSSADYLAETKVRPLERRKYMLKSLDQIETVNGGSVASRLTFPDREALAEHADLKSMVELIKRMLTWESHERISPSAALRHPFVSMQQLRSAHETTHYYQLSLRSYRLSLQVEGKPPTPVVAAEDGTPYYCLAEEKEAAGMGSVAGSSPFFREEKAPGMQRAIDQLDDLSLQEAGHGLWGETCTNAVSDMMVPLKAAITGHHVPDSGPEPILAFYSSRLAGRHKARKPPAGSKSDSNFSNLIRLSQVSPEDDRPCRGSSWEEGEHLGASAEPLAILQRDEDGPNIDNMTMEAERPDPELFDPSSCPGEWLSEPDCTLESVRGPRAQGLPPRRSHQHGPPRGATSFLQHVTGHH

[7] = target: Ribosomal protein S6 kinase alpha-2 (Homo sapiens) (UniProt Q15349); assay: Selectivity interaction (ProQinase) EUB0000171b RPS6KA2
Sequence of Ribosomal protein S6 kinase alpha-2 (Homo sapiens) (Q15349 whole entry): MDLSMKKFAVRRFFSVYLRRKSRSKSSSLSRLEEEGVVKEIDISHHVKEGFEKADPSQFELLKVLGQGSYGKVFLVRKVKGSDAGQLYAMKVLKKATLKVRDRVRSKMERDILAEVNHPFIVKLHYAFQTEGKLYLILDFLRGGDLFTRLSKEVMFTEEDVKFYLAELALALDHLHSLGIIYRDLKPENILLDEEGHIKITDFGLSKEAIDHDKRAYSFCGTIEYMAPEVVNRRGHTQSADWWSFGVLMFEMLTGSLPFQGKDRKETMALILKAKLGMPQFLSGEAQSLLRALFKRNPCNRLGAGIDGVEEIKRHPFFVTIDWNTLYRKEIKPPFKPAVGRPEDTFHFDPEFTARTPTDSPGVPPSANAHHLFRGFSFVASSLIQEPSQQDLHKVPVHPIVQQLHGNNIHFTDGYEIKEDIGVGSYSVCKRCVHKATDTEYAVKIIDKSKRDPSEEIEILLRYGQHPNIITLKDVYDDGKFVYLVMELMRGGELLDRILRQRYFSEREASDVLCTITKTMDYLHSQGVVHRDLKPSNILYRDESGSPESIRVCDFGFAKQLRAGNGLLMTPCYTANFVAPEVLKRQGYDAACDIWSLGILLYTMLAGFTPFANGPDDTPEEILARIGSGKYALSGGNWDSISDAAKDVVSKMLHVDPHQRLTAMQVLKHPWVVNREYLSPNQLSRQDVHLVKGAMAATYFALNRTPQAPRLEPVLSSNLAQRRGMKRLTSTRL

[8] = target: Tyrosine-protein kinase Fyn (Homo sapiens) (UniProt P06241); assay: Selectivity interaction (KinomeScan (DiscoverX)) EUB0000607a FYN; conditions: at 10 µM
Sequence of Tyrosine-protein kinase Fyn (Homo sapiens) (P06241 2-537 limits assumed): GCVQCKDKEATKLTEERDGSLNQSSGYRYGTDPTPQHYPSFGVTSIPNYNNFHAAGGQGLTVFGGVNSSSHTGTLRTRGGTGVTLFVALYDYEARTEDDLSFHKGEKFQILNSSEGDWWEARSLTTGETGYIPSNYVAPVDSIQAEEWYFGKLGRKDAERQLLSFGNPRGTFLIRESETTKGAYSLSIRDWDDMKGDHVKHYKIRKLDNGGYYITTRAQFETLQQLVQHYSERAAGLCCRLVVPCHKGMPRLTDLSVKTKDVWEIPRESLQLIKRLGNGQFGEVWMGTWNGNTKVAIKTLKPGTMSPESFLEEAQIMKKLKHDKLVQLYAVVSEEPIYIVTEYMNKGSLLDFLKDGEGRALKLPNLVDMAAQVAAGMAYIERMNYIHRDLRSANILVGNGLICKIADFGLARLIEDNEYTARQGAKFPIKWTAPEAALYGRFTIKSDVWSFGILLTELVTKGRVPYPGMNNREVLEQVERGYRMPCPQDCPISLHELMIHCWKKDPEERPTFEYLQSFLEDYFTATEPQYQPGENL

[9] = target: Serine/threonine-protein kinase MARK1 (Homo sapiens) (UniProt Q9P0L2); assay: Selectivity interaction (KinomeScan (DiscoverX)) EUB0000607a MARK1; conditions: at 10 µM
Sequence of Serine/threonine-protein kinase MARK1 (Homo sapiens) (Q9P0L2 whole entry, looked up): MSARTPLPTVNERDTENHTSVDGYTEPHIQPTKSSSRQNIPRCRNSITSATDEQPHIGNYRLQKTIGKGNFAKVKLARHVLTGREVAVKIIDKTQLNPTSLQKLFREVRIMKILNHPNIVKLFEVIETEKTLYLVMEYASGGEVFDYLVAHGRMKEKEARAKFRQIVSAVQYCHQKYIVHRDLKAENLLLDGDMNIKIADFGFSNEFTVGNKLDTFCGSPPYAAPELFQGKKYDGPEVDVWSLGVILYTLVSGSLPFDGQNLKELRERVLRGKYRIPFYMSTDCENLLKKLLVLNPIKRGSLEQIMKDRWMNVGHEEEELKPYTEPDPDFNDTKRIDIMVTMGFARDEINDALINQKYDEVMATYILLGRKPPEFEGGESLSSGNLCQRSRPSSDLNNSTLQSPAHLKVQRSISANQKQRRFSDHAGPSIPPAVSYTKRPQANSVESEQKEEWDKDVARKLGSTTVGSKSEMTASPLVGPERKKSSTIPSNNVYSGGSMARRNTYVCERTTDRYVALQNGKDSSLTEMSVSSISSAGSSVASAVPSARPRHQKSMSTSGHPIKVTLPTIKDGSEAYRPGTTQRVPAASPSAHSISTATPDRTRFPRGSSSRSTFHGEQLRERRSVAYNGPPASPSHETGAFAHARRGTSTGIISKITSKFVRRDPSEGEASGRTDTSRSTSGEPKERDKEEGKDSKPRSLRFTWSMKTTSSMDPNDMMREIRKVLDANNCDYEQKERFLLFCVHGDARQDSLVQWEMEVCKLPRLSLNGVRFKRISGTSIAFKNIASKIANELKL

[10] = target: T3, Aurora kinase A (Homo sapiens) (UniProt O14965); conditions: at 10 µM
T3 sequence (whole entry): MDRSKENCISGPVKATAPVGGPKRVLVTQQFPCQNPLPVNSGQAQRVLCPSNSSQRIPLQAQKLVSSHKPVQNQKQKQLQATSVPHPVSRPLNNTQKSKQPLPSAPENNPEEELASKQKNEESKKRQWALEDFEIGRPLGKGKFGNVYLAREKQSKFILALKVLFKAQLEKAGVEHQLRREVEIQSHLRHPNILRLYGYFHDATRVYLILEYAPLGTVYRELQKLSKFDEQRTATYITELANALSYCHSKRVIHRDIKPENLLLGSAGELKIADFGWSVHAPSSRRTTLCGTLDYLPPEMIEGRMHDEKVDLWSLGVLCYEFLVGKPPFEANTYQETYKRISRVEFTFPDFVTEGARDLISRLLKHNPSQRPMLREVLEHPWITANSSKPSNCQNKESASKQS

[11] = target: Ribosomal protein S6 kinase alpha-6 (Homo sapiens, UniProt Q9UK32); conditions: at 10 µM
Sequence of Ribosomal protein S6 kinase alpha-6 (Q9UK32 whole entry): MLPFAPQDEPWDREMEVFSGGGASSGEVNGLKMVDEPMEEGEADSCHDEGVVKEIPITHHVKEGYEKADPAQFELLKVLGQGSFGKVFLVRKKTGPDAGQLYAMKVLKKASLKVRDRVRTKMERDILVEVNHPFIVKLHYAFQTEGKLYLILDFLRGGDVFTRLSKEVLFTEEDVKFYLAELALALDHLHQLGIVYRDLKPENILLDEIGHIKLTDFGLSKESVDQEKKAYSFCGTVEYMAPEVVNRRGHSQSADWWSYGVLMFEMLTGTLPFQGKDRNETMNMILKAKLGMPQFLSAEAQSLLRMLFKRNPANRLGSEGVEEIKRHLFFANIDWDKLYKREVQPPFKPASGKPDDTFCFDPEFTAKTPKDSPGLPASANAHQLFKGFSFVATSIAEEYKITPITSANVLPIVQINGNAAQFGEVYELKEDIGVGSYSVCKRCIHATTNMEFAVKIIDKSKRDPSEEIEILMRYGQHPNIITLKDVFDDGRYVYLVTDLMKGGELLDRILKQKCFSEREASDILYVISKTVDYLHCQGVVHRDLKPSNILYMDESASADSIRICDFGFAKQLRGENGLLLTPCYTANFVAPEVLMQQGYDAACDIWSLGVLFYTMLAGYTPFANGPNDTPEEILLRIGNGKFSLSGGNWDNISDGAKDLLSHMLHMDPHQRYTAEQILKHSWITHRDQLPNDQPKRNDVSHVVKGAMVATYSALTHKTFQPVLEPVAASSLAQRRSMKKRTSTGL

SMILES: COCC(=O)NC/C=C/c1ccc2ncnc(Nc3ccc(Oc4ccc(C)nc4)c(C)c3)c2c1 [CP-724714]
- % of control [1]: 100%
- % of control [2]: 100%

SMILES: C=CC(=O)Nc1cc(-n2c(=O)ccc3cnc4ccc(-c5ccc(NS(C)(=O)=O)cc5)cc4c32)ccc1C
- % of control ([3]; at 1 µM): 83%
- % of control ([3]; at 10 µM): 100%

SMILES: Nc1cnc(N2CCc3cc(S(=O)(=O)Nc4c(F)cc(Cl)cc4F)cc(N4CCCC4=O)c32)nc1 [TP-020n]
- % of control [4]: 77%

SMILES: COc1cc(Nc2nc(C)cc(-c3cnn4nc(OC)ccc34)n2)cc(C(F)(F)F)c1
- % of control [5]: 67%
- % of control [6]: 92%

SMILES: C=CC(=O)Nc1cccc(C(=O)Nc2ccc(Nc3cc(-c4[nH]c(SC)nc4C)ccn3)cc2)c1
- % of control ([7]; at 1 µM): 88%
- % of control ([7]; at 5 µM): 69%

SMILES: CNC(=O)Nc1ccc(-c2nc(N3CC4CCC(C3)O4)c3cnn(C4CCC5(CC4)OCCO5)c3n2)cc1
- % of control [8]: 70%
- % of control [9]: 100%

SMILES: CCN(CC)CCCCNc1ncc2cc(-c3cc(OC)cc(OC)c3)c(NC(=O)NC(C)(C)C)nc2n1
- % of control [10]: 100%
- % of control [11]: 100%
